Consider one compound from article PMC9057582, “HIF inhibitor 32-134D eradicates murine hepatocellular carcinoma in combination with anti-PD1 therapy” (The Journal of Clinical Investigation, 2022).

Data set [1] relates to Hepa1-6 tumor immune microenvironment. As to the kind of experiment: Flow cytometry of immune cell populations in Hepa1-6 tumors. It counts as in vivo, C57L mice. Conditions: 40 mg/kg daily ip, 8 days. As to the method:
To analyze the mechanism by which 32-134D increased the response to anti-PD1 therapy, Hepa1-6 tumor–bearing mice were treated with 32-134D or vehicle, and immune cell populations in well-established 200-mm^3 tumors were analyzed by flow cytometry (Supplemental Figure 8). […] The pivotal role of CD8^+ T cells and NK cells in antitumor immunity is underscored by the fact that expression of CD8A and CD8B mRNA as well as KLRK1 and KLRB1 mRNA (encoding the human homologs of CD314 and NK1.1, respectively) in HCC is associated with patient survival (P < 0.05; Supplemental Table 2).
Figure 5 Effect of 32-134D on the tumor immune microenvironment. (A–H) C57L mice were injected with Hepa1-6 HCC cells subcutaneously and when tumors reached a volume of 200 mm^3, the mice were treated with vehicle or 32-134D (40 mg/kg) by daily intraperitoneal injection for 8 days. Single-cell suspensions prepared from each tumor were analyzed by flow cytometry using fluorescent antibodies against the indicated cell surface proteins. The percentage of cells positive for the indicated markers is shown (mean ± SEM, n = 6). *P < 0.05 (Mann-Whitney test). M-MDSCs and G-MDSCs, monocytic and granulocytic myeloid-derived suppressor cells; TAMs, tumor-associated macrophages.
Hepa1-6 tumors were digested with collagenase (1 mg/mL) at 37°C for 30 minutes and the resulting single-cell suspension was passed through a 70-μm cell strainer and washed twice with cold PBS. Cells were resuspended in FC buffer for subsequent flow cytometry analysis. Cells were stained with at least 2 antibodies (see Supplemental Table 6) to capture different immune cell populations. G-MDSCs: Alexa Fluor 405–conjugated anti-CD11b and FITC-conjugated anti-Ly6G; M-MDSCs: Alexa Fluor 405–conjugated anti-CD11b and FITC-conjugated anti-Ly6C; TAMs: Alexa Fluor 405–conjugated anti-CD11b and allophycocyanin-conjugated (APC-conjugated) anti-F4/80; dendritic cells: Alexa Fluor 405–conjugated anti-CD11b, FITC-conjugated anti-CD11c, and APC-conjugated anti-F4/80; cytotoxic NK cells: FITC-conjugated anti-CD3, APC-conjugated anti-NK1.1, and Alexa Fluor 405–conjugated anti-CD314; effector T cells: phycoerythrin-conjugated (PE-conjugated) anti-CD8A and Alexa Fluor 405–conjugated anti–IFN-γ; activated T cells: PE-conjugated anti-CD8A, FITC-conjugated anti-CD69, and APC-conjugated anti-CD44; regulatory T cells: APC-conjugated anti-CD4, FITC-conjugated anti-CD25, and PE-conjugated anti-FOXP3. Live cells were gated using side-scatter and forward-scatter plots, and data were acquired using FACSDiva software (Becton Dickinson). Cell populations were gated using unstained control and single stained cell samples. Data analysis was performed using FlowJo software.
Supplemental Figure 8. Effect of 32-134D on Hepa1-6 tumor immune cell microenvironment. […]
For orientation: In flow cytometry, cells or beads pass a laser one at a time.

Data set [2] is described as follows: Mouse pharmacokinetics (plasma, LC-MS/MS). It counts as in vivo, C57BL/6J mice. The conditions noted are these: male, C57BL/6J, ip, single intraperitoneal injection of 40 mg/kg. As to the method: We employed liquid chromatography and tandem mass spectrometry (LC-MS/MS) to quantify the plasma concentration of 32-134D over 24 hours following a single intraperitoneal injection of 40 mg/kg (Figure 9). The maximum plasma concentration (Cmax) of 20 μM occurred at 4 hours with a biexponential decline. […] Further studies are required to determine whether steady-state levels are achieved with daily administration.
Figure 9 Concentration-time profiles of 32-134D in mice (n = 3 per time point) treated with a single dose of 32-134D. Plasma was obtained over 24 hours, with 32-134D concentrations determined by LC-MS/MS. […] Data points and error bars represent mean and SD of 3 replicates, respectively.
Male C57BL/6J mice were administered 32-134D at 40 mg/kg as a single intraperitoneal injection. Mice (n = 3 per time point) were euthanized at 0.5, 1, 2, 4, 8, 16, and 24 hours after injection. Compound 32-134D was quantified in plasma by LC-MS/MS (see Supplemental Methods). Pharmacokinetic parameters were calculated from mean concentration-time data using noncompartmental methods in Phoenix WinNonlin version 8.3 (Certara). The Cmax and time to Cmax (tmax) were the observed values. The AUClast was calculated using the log-linear trapezoidal method. AUC was extrapolated to infinity (AUCINF) by dividing the last quantifiable concentration by the terminal disposition rate constant (λz). The λz was determined from at least 3 points on the slope of the terminal phase of the concentration-time profile. The t1/2 was determined by dividing 0.693 by λz. Cl/F was calculated by dividing the dose administered by AUCINF. V/F was calculated by dividing Cl/F by λz. If the percentage AUC extrapolated was greater than 20% or the r^2 of λz was less than 0.85, the AUCINF, Cl/F, t1/2, and V/F were not reported.

For the compound `Brc1ccc2c(-c3csc(-c4c[nH]c5c(Br)cccc45)n3)c[nH]c2c1` [Compound 32-134D], in data set [1], the “increase in the ratio of effector T cells to TAMs” value is recorded as 3 fold; the “percentage of regulatory T cells, G-MDSCs, and dendritic cells in tumors” value is given as “not significantly affected”. Besides, in data set [1] (P < 0.05), the “percentage of CD8+IFN-γ+ effector T cells, CD8+CD44+CD69+ activated T cells, and NK1.1+CD3–CD314+ activated NK cells in tumors” value is given as “significantly increased”; the “percentage of intratumoral CD11b+F4/80+ TAMs and CD11b+Ly6C+ M-MDSCs” value was “decreased percentage”. Further, the CL/F in data set [2] (read-out: apparent clearance (Cl/F)) stood at 0.87 L/h/kg. Besides, the Vd/F in data set [2] (read-out: apparent volume of distribution (V/F)) stood at 6.1 L/kg. Further, in data set [2] (read-out: area under the curve extrapolated to infinity (AUCINF)), the AUC(0-inf) was 96.7 µM·h. The Cmax in data set [2] (read-out: maximum plasma concentration (Cmax)) was 20 µM. For the same compound, the half-life in data set [2] (read-out: terminal half-life (t1/2) (converted)) is 4.1 h.
